Assay results published in PubChem BioAssay AID1918931 (Molecular Pharmacology Branch, DTP, NCI, 2023).

Test system: 138582-337-R-J1-PDC complex spheroid viability
Assay: Anticancer human tumor 138582-337-R-J1-PDC patient-derived Merkel cell tumor cell line growth inhibition
Conditions: for IC50: curve of first compound; for viability, T/C: stronger effect = lower value
Summary of the method: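 Complex spheroids of tumor cells with HUVEC and human MSCs, exposed to iadademstat combined with other agents. Each agent tested in half-log steps from near clinical Cmax (else 10 microM top), DMSO ≤0.25%.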

[1] = second compound 0.1 µM, first compound 0.0316 µM
[2] = second compound 0.1 µM, first compound 0.1 µM
[3] = second compound 0.1 µM, first compound 0.316 µM
[4] = second compound 0.1 µM, first compound 1 µM
[5] = second compound 0.1 µM, first compound 3.16 µM
[6] = second compound 0.1 µM, first compound 10 µM
[7] = second compound 0.316 µM, first compound 0.0316 µM
[8] = second compound 0.316 µM, first compound 0.1 µM
[9] = second compound 0.316 µM, first compound 0.316 µM
[10] = second compound 0.316 µM, first compound 1 µM
[11] = second compound 0.316 µM, first compound 3.16 µM
[12] = second compound 0.316 µM, first compound 10 µM
[13] = second compound 1 µM, first compound 0.0316 µM
[14] = second compound 1 µM, first compound 0.1 µM
[15] = second compound 1 µM, first compound 0.316 µM
[16] = second compound 1 µM, first compound 1 µM
[17] = second compound 1 µM, first compound 3.16 µM
[18] = second compound 1 µM, first compound 10 µM
[19] = second compound 3.16 µM, first compound 0.0316 µM
[20] = second compound 3.16 µM, first compound 0.1 µM
[21] = second compound 3.16 µM, first compound 0.316 µM
[22] = second compound 3.16 µM, first compound 1 µM
[23] = second compound 3.16 µM, first compound 3.16 µM
[24] = second compound 3.16 µM, first compound 10 µM
[25] = second compound 10 µM, first compound 0.0316 µM
[26] = second compound 10 µM, first compound 0.1 µM
[27] = second compound 10 µM, first compound 0.316 µM
[28] = second compound 10 µM, first compound 1 µM
[29] = second compound 10 µM, first compound 3.16 µM
[30] = second compound 10 µM, first compound 10 µM
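Wherever viability, T/C is given: 100% = DMSO vehicle control viability.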

Row | SMILES | IC50 (second compound 0.1 µM) [µM] | IC50 (second compound 0.316 µM) [µM] | IC50 (second compound 1 µM) [µM] | IC50 (second compound 3.16 µM) [µM] | IC50 (second compound 10 µM) [µM] | viability, T/C [1] [%] | viability, T/C [2] [%] | viability, T/C [3] [%] | viability, T/C [4] [%] | viability, T/C [7] [%] | viability, T/C [8] [%] | viability, T/C [9] [%] | viability, T/C [10] [%] | viability, T/C [13] [%] | viability, T/C [14] [%] | viability, T/C [15] [%] | viability, T/C [16] [%] | viability, T/C [19] [%] | viability, T/C [20] [%] | viability, T/C [21] [%] | further results
1 | CC(C)c1c(-c2ccccc2)nc2c(C#N)c[nH]n2c1=O + NC1CC1c1ccc(-c2cccc(O)c2)cc1 | 6.25 | 4.4 | 4.91 | 2.53 | > 10 | 69.5 | 76.3 | 66.6 | 62.1 | 69.1 | 73.5 | 71.2 | 67.6 | 76.1 | 68.8 | 82 | 70.2 | 85.7 | 78.6 | 68.6 | viability, T/C [5]: 54.4%; viability, T/C [6]: 46.9%; viability, T/C [11]: 54.7%; viability, T/C [12]: 38.5%; viability, T/C [17]: 57.5%; viability, T/C [18]: 38.2%; viability, T/C [22]: 55.9%; viability, T/C [23]: 50.1%; viability, T/C [24]: 38.5%; viability, T/C [25]: 85.7%; viability, T/C [26]: 90.9%; viability, T/C [27]: 84.9%; viability, T/C [28]: 73.9%; viability, T/C [29]: 61.1%; viability, T/C [30]: 51.6%
2 | CC1COCCN1c1cc(-c2ccnn2C)c2ccnc(-c3ccn[nH]3)c2n1 (stereo not given) + NC1CC1c1ccc(-c2cccc(O)c2)cc1 | 0.0345 | 0.0257 | 0.0384 | 0.0438 | 0.0677 | 50.3 | 34.1 | 26.3 | 28 | 48 | 42.9 | 27.1 | 27.3 | 54.4 | 28.2 | 30.1 | 25.8 | 59.7 | 33.5 | 27.6 | viability, T/C (second compound 0.1 µM, first compound 0.00316 µM): 62.1%; viability, T/C (second compound 0.1 µM, first compound 0.01 µM): 65%; viability, T/C (second compound 0.316 µM, first compound 0.00316 µM): 68%; viability, T/C (second compound 0.316 µM, first compound 0.01 µM): 57.4%; viability, T/C (second compound 1 µM, first compound 0.00316 µM): 77.1%; viability, T/C (second compound 1 µM, first compound 0.01 µM): 74.7%; viability, T/C (second compound 3.16 µM, first compound 0.00316 µM): 80.4%; viability, T/C (second compound 3.16 µM, first compound 0.01 µM): 65.8%; viability, T/C [22]: 26.4%; viability, T/C (second compound 10 µM, first compound 0.00316 µM): 75.6%; viability, T/C (second compound 10 µM, first compound 0.01 µM): 85%; viability, T/C [25]: 57.6%; viability, T/C [26]: 46.2%; viability, T/C [27]: 30.5%; viability, T/C [28]: 26.5%
3 | CC1COCCN1c1cc(C2(S(C)(=N)=O)CC2)nc(-c2ccnc3[nH]ccc23)n1 (stereo not given) + NC1CC1c1ccc(-c2cccc(O)c2)cc1 | 4.58 | 3.02 | 5.05 | 3.85 | 4.24 | 74.1 | 78 | 70.3 | 68.6 | 64.6 | 79 | 75.8 | 68 | 72 | 66.1 | 62.6 | 69.4 | 81.2 | 76.3 | 78.8 | viability, T/C [5]: 54.2%; viability, T/C [6]: 37.6%; viability, T/C [11]: 49.4%; viability, T/C [12]: 35.9%; viability, T/C [17]: 54%; viability, T/C [18]: 40.8%; viability, T/C [22]: 66.2%; viability, T/C [23]: 54%; viability, T/C [24]: 32.6%; viability, T/C [25]: 89.9%; viability, T/C [26]: 87.6%; viability, T/C [27]: 95.5%; viability, T/C [28]: 80.8%; viability, T/C [29]: 53.3%; viability, T/C [30]: 41.6%
